Experimental findings from patent US7666635B2, “Process for the preparation of amides” (priority 1997, dated 2010) are described below.

The subject of assay [1] is NA40 nitrile hydratase (resting NA40 cells). The assay is described as follows: Substrate specificity of resting NA40 cells. The note with it: resting NA40 cells, 20° C., 10 min; 3-cyanopyridine = 100; substrate concentration per Table 8. The assay is classed as cell-based, Amycolatopsis NA40. The protocol: (3) For determination of the activity of NA40 with respect to a number of substrates, cells having a dry weight of 0.0388 mg were incubated in the buffer described above. The reaction was started by addition of the appropriate substrate and incubated at 20° C. with shaking for 10 min. The reaction was stopped by addition of 0.2 ml of 2 N HCl and the reaction mixture was briefly centrifuged. The supernatant was analysed by means of HPLC or gas chromatography.

Assay [2] concerns purified nitrile hydratase from NA40. The assay is described as follows: Substrate specificity of the purified nitrile hydratase. The assay is classed as biochemical, Amycolatopsis NA40. The note with it: purified enzyme; 3-cyanopyridine = 100. As to the method:
The substrate specificity was determined analogously to Example 2 (1).
1.7 Units of enzyme were added to the reaction mixture (2.0 ml). The reaction mixture contained the respective substrate in 45 mM phosphate buffer (pH 7.0).

The test system of assay [3] is Rhodococcus rhodochrous J1. The assay is described as follows: Substrate specificity of the Rhodococcus strains. In kind it is cell-based. The note with it: Rhodococcus rhodochrous J1; 3-cyanopyridine = 100. The protocol: (§1) Rhodococcus rhodochrous J1 was cultured for 72 h in the medium described in EP-A 0 307 926. The microorganisms Rhodoccus GF674, GF578, GF270 and GF376 were cultured in the following media at pH 7.0 for up to 96 h:
(§2) The substrate specificity is summarized as relative activity in Table 15.

Assay [4] concerns Rhodococcus GF376. The assay is described as follows: Substrate specificity of the Rhodococcus strains. The assay is classed as cell-based. The note with it: Rhodococcus GF376; 3-cyanopyridine = 100. As to the method:
as §1
(§3) Rhodoccus GF674 in a medium comprising yeast extract 1.0 g/l, fructose 5.0 g/l, malt extract 10.0 g/l, acetamide 5.0 g/l, KH2PO4 2.0 g/l, MgSO47H2O 0.5 g/l and CoCl2.6H2O 10.0 mg. Rhodoccus GF578 in a medium containing yeast extract 1.0 g/l, fructose 15.0 g/l, malt extract 10.0 g/l, acetamide 25.0 g/l, KH2PO4 2.0 g/l, MgSO47H2O 0.5 g/l and CoCl2.6H2O 5.0 mg. […] Rhodoccus GF3 76 in a medium containing yeast extract 1.0 g/l, sodium citrate 10.0 g/l, malt extract 15.0 g/l, butyramide 7.5 g/l, KH2PO4 2.0 g/l, MgSO4.7H2O 0.5 g/l and CoCl2.6H2O 15.0 mg.
as §2

Assay [5] relates to Rhodococcus GF674. Nature of the assay: Substrate specificity of the Rhodococcus strains. In kind it is cell-based. As to conditions: Rhodococcus GF674; 3-cyanopyridine = 100. As to the method:
as §1, §3, §2

The test system of assay [6] is Rhodococcus GF270. Nature of the assay: Substrate specificity of the Rhodococcus strains. In kind it is cell-based. The note with it: Rhodococcus GF270; 3-cyanopyridine = 100. The protocol:
as §1, §3, §2

The test system of assay [7] is Rhodococcus GF578. The assay is described as follows: Substrate specificity of the Rhodococcus strains. The note with it: Rhodococcus GF578; 3-cyanopyridine = 100. The assay is classed as cell-based. The protocol: as §1, §3, §2
For assay [8], the system named is purified nitrile hydratase from NA40. In kind it is biochemical, Amycolatopsis NA40. As to the method:
The effect of various inhibitors was determined.

Assay [9] has as its system Amycolatopsis NA40. Nature of the assay: Effects of inducers and cofactors on growth and nitrile hydratase activity in the basal medium. In kind it is cell-based. The protocol:
(1) For determination of the nitrile hydratase activity, a reaction mixture (2 ml) containing 3-cyanopyridine (1.0 M, 1.0 ml), potassium phosphate buffer (pH 7.0, 0.1 M, 0.5 ml) and 0.5 ml of cell suspension were incubated at 20° C. for 30 min with stirring. The reaction was stopped by addition of 0.2 ml of 3 N HCl. After centrifuging briefly, the nicotinamide formed was determined by means of HPLC (Shimadzu SPD 6A system using a C18 column (Develosil ODS-HG-5. […]); eluent: 10 mM KH2PO4/H3PO4 (pH 2.8)/acetonitrile 9:1 (v/v); flow rate: 1 ml/min; the absorption was measured at 230 nm). The specific activity was expressed as µmol of nicotinamide formed/ml/min/OD610 nm.
The reaction rates of aliphatic nitriles in the enrichment medium (Table 1) with isolated bacteria is summarized in Table 5, the effects of inducers and cofactors in the basal medium (Table 2) is summarized in Table 4 and the activity comparison of Amycolatopsis to Rhodoccus in the basal medium (Table 2) is summarized in Table 6.

[10] abbreviates: substance added as inducer to basal medium.
Setting [11] is: substance added as inducer to basal medium, nicotinamide formed from 3-cyanopyridine, 20° C.
Setting [12] is: substance added as cofactor to basal medium.
Where [13] appears, read: inhibitor 1 mM, without inhibitor = 100.

Structures can show the parent of a compound that is named as a salt. Where two headings read alike, the source gives them in different places.

As for `N#Cc1cccnc1Cl` [2-Chloro-3-cyanopyridine], the Relative activity in assay [1] turned out to be 126%. The “Relative activity, Enzyme reaction” value in assay [2] is reported as 90%.
For the compound `N#Cc1ccccn1` [2-Cyanopyridine], the “relative activity (substrate specificity)” value in [3] is 45%; in assay [4], 54.3%; in [5], 308%; in [6], 15.7%; in assay [7], 200%. The Relative activity in assay [1] is on record as 128%. In addition, the “Relative activity, Enzyme reaction” value in assay [2] is on record as 221%.
Turning to `O=C(O)c1cc[c]([Hg][Cl])cc1` [4-Chloromercurobenzoic acid], the Relative activity in [8] (inhibitor 0.1 mM, without inhibitor = 100) was 69%.
As for `N#Cc1ccncc1` [4-Cyanopyridine], the “relative activity (substrate specificity)” value was 70% in assay [3]; 79.8% in assay [4]; 231% in assay [5]; 55.6% in assay [6]; 167% in [7]. In assay [1], the Relative activity is on record as 168%. For the same compound, the “Relative activity, Enzyme reaction” value in [2] is reported as 179%.
For `Oc1cccc2cccnc12` [8-Hydroxyquinoline], the Relative activity in assay [8] is 110%.
As for `CC#N` [Acetonitrile], the “relative activity (substrate specificity)” value in assay [3] is listed as 608%; in assay [4] it was 806%; in [5] it was 1.49%; in [6] it was 659%; in assay [7], 347%.
Turning to `N#Cc1ccccc1` [Benzonitrile], the “relative activity (substrate specificity)” value in assay [3] was determined as 27%; in assay [4] it was 57.2%; in [5], 138%; in assay [6] it was 13.4%; in [7] it was 85.1%. Moreover, the Relative activity in assay [1] is listed as 51%. The “Relative activity, Enzyme reaction” value in assay [2] was determined as 64%.
With `CCCC(N)=O` [Butyramide], in assay [9] (setting [10]), the “Growth (OD610 nm)” value is 2.19 OD610 nm and the Specific activity worked out at 0.88 μmol/ml/min/OD. The compound also yielded a Total activity in assay [9] (setting [11]) of 0.19 µmol/mL/min.
Regarding `O.O.O.O.O.O.[Cl-].[Cl-].[Co+2]` [CoCl2•6H2O], in assay [9] (setting [12]), the “Growth (OD610 nm)” value is listed as 8.41 OD610 nm, the Specific activity was determined as 5.68 μmol/ml/min/OD and the Total activity was 47.8 µmol/mL/min.
For `C/C=C/C(N)=O` [Crotonamide], in assay [9] (setting [10]), the “Growth (OD610 nm)” value was determined as 3.41 OD610 nm and the Specific activity came out at 6.72 μmol/ml/min/OD. In assay [9] (setting [11]), this compound gave a Total activity of 22.9 µmol/mL/min.
For the compound `CC=CC#N` [Crotononitrile], the “relative activity (substrate specificity)” value in [3] was 78.2%; in [4] it was 110%; in assay [5], 98.0%; in assay [6], 37.1%; in [7], 124%. Also, the Relative activity in assay [1] was determined as 52%. For the same compound, the “Relative activity, Enzyme reaction” value in assay [2] was determined as 67%.
As for `CCN(CC)C(=S)S` [Diethyl dithiocarbamate], in assay [8] (setting [13]), the Relative activity turned out to be 89%.
In the case of `O=C(O)CN(CCN(CC(=O)O)CC(=O)O)CC(=O)O` [EDTA, ethylenediaminetetra-acetic acid], in assay [8], the Relative activity is recorded as 115%.
On to `O.O.O.O.O.O.O.O=S(=O)([O-])[O-].[Fe+2]` [FeSO4•7H2O], for which, in assay [9] (setting [12]), the “Growth (OD610 nm)” value amounted to 8.32 OD610 nm, the Specific activity was 0.40 μmol/ml/min/OD and the Total activity came to 3.36 µmol/mL/min.
On to `NO` [Hydroxylamine], for which, in [8] (setting [13]), the Relative activity was 37%.
For the compound `O=C(O)CI` [Iodoacetic acid], the Relative activity in assay [8] came out at 39%.
Take `C=C(C)C(N)=O` [Methacrylamide]: in [9] (setting [10]), the “Growth (OD610 nm)” value amounted to 3.33 OD610 nm and the Specific activity came to 0.74 μmol/ml/min/OD. Also, in assay [9] (setting [11]), the Total activity came out at 2.46 µmol/mL/min.
On to `C=C(C)C#N` [Methacrylonitrile], for which the “relative activity (substrate specificity)” value in assay [3] is 86.9%; in [4] it was 0%; in [5], 176%; in assay [6], 0%; in assay [7], 122%. Further, in assay [1], the Relative activity came to 130%. Also, the “Relative activity, Enzyme reaction” value in assay [2] stood at 125%.
On to `CCN1C(=O)C=CC1=O` [N-ethylmaleimide], for which the Relative activity in assay [8] (setting [13]) was determined as 97%.
Take `NNc1ccccc1` [Phenylhydrazine]: in [8] (setting [13]), the Relative activity was found to be 8%.
For the compound `CCC(N)=O` [Propionamide], in assay [9] (setting [10]), the “Growth (OD610 nm)” value was 1.91 OD610 nm and the Specific activity amounted to 0.48 μmol/ml/min/OD. In assay [9] (setting [11]), this compound returned a Total activity of 0.92 µmol/mL/min.
For the compound `CCC#N` [Propionitrile], the “relative activity (substrate specificity)” value in [3] came to 434%; in assay [4], 245%; in [5] it was 274%; in assay [6], 37.3%; in assay [7], 132%. Moreover, the Relative activity in assay [1] was 105%. Besides, in assay [2], the “Relative activity, Enzyme reaction” value was found to be 222%.
For the compound `NNC(N)=O` [Semicarbazide], in assay [8] (setting [13]), the Relative activity was 82%.
For `O=S(=O)(O)c1cc(O)c(O)c(S(=O)(=O)O)c1` [Tiron, disodium salt of 4,5-dihydroxy-1,3-benzene-disulphonic acid], in assay [8] (setting [13]), the Relative activity worked out at 110%.
As to `NC(N)=O` [Urea], in [9] (setting [10]), the “Growth (OD610 nm)” value is 1.72 OD610 nm and the Specific activity came to 1.73 μmol/ml/min/OD. In [9] (setting [11]), this compound returned a Total activity of 2.97 µmol/mL/min.
Regarding `N#Cc1cccc(Cl)c1` [m-Chlorobenzonitrile], the “relative activity (substrate specificity)” value was determined as 43% in [3]; 8.63% in assay [4]; 27.8% in assay [5]; 8.41% in assay [6]; 28.9% in assay [7]. Besides, the Relative activity in [1] is reported as 75%. For the same compound, the “Relative activity, Enzyme reaction” value in [2] is on record as 90%.
Take `CCCC#N` [n-Butyronitrile]: the “relative activity (substrate specificity)” value in assay [3] is 352%; in [4], 195%; in assay [5], 491%; in [6], 181%; in assay [7], 368%. In assay [1], the Relative activity is 194%. Also, the “Relative activity, Enzyme reaction” value in [2] amounted to 101%.
With `N#Cc1ccccc1Cl` [o-Chlorobenzonitrile], the “relative activity (substrate specificity)” value is listed as 2.8% in [3]; 0% in assay [4]; 64.8% in assay [5]; 0% in assay [6]; 49.0% in assay [7]. The Relative activity in [1] was found to be 96%. For the same compound, the “Relative activity, Enzyme reaction” value in assay [2] came out at 127%.
In the case of `c1cnc2c(c1)ccc1cccnc12` [o-Phenanthroline], in [8] (setting [13]), the Relative activity amounted to 89%.
Same read-out and setting: to `c1ccc(-c2ccccn2)nc1` [α,α′-Dipyridyl] belongs 100%.
For `O=C1CCCCCN1` [ε-Caprolactam], in assay [9] (setting [10]), the “Growth (OD610 nm)” value came to 0.66 OD610 nm and the Specific activity was determined as 14.5 μmol/ml/min/OD. In assay [9] (setting [11]), this compound returned a Total activity of 9.52 µmol/mL/min.
